# Calls of active or inactive are those of the source.
# Key:
# [1] = target: Botulinum neurotoxin type F (Clostridium botulinum, UniProt P30996); experiment: High-throughput multiplex microsphere dose response for inhibitors of toxin protease, specifically Botulinum neurotoxin light chain F protease, compounds from Cherry Pick 02.; format: functional; details: read-out: EC50_MICROM
# [2] = CRF-BP/CRF-R2 complex antagonists, dose response, cell-based, uHTS hits, 384-well (AID 651639); format: functional, Homo sapiens; details: read-out: IC50_Mean
# Interleukin-8 [3] = target: T1, Interleukin-8 (Homo sapiens, UniProt P10145); experiment: Dose Response confirmation of uHTS small molecule hits for cystic fibrosis induced NFkb Inhibitors in a PAF-induced IL8 counterscreen.; format: functional; details: read-out: IC50_Mean
# T1 sequence (P10145 whole entry): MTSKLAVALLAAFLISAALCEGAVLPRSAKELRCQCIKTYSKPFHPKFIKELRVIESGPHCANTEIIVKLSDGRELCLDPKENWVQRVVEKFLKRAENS
# HEK293 = experiment: inhibitors of LMP1-driven NF-kB reporter, dose response, cell-based, HEK293, luciferase, cherry-pick (AID 588343); format: functional; details: Homo sapiens
# Interleukin-8 [4] = target: T1, Interleukin-8; experiment: Dose Response confirmation of uHTS small molecule hits for cystic fibrosis induced NFkb Inhibitors in a TNFa-induced IL8 counterscreen.; format: functional; details: read-out: IC50_Mean
# [5] = target: Low molecular weight phosphotyrosine protein phosphatase (Homo sapiens, UniProt P24666); format: functional; details: read-out: IC50_Mean
# Sequence of Low molecular weight phosphotyrosine protein phosphatase (P24666 whole entry): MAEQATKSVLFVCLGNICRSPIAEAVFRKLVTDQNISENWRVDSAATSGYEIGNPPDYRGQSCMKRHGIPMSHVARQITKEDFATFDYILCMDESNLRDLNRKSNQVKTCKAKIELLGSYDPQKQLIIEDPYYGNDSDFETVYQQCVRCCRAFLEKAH
# [6] = target: T2, Neuropeptides B/W receptor type 1 (Homo sapiens, UniProt P48145); experiment: GPR7 antagonist potency, late-stage follow-up, cell-based, fluorescence, dose response, set 6 (AID 588583); format: functional
# T2 sequence (P48145 whole entry): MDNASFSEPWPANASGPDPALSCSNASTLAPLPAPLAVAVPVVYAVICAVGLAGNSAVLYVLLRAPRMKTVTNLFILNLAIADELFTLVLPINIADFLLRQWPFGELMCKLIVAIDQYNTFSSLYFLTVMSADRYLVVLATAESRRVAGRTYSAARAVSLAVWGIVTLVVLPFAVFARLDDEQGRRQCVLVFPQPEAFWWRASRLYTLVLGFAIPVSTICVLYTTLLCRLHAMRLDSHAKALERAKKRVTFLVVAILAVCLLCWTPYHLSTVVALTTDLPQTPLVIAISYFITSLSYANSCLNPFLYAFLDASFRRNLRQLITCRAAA
# [7] = target: Melanin-concentrating hormone receptor 1 (Homo sapiens, UniProt Q99705); experiment: Late-stage fluorescence-based counterscreen for antagonists of the G-protein coupled receptor 7 (GPR7): cell-based dose response assay to identify antagonists of the melanin-concentrating hormone receptor 1 (MCHR1) Set 6.; format: functional
# Sequence of Melanin-concentrating hormone receptor 1 (Q99705 whole entry): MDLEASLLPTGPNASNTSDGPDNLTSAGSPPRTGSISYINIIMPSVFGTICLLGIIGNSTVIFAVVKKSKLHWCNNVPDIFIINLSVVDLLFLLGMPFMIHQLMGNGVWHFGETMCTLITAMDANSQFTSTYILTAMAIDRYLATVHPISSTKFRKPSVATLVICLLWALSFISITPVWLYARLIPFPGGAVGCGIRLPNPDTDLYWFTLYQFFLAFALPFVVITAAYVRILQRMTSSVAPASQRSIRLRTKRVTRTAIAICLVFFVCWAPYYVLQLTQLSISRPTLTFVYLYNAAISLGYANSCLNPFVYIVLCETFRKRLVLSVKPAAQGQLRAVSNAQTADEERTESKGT
# [8] = target: T3, High affinity choline transporter 1 (Homo sapiens, UniProt Q9GZV3); experiment: CHT inhibitors, dose response, cell-based, 5-point CRC, membrane potential dye (AID 504840); format: functional
# T3 sequence (Q9GZV3 whole entry): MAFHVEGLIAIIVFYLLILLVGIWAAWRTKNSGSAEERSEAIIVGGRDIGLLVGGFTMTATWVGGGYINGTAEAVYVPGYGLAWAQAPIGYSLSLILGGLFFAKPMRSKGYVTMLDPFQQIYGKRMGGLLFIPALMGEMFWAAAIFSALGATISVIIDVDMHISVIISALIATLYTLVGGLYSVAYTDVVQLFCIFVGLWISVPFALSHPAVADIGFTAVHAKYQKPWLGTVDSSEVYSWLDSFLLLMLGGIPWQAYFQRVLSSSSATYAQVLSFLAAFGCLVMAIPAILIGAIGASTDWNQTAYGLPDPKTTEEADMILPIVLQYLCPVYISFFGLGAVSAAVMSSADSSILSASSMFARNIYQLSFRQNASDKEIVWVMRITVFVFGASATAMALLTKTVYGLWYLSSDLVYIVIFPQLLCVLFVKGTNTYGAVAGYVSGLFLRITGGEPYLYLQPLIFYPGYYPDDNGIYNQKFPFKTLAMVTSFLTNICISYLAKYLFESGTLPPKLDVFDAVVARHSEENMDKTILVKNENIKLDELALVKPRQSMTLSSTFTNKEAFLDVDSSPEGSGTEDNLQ
# [9] = target: T3, High affinity choline transporter 1; experiment: CHT inhibitors, dose response, cell-based, 10-point CRC, membrane potential dye (AID 588401); format: functional;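 also: membrane potential dye fluorescence of choline-evoked depolarization via CHT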
# [10] = target: Tyrosine-protein phosphatase non-receptor type 11 (Homo sapiens, UniProt Q06124); experiment: SHP2 phosphatase inhibition, dose response, selectivity assay for STEP inhibitor project, biochemical (AID 602367); format: functional; details: read-out: IC50_Mean
# Sequence of Tyrosine-protein phosphatase non-receptor type 11 (Q06124 whole entry): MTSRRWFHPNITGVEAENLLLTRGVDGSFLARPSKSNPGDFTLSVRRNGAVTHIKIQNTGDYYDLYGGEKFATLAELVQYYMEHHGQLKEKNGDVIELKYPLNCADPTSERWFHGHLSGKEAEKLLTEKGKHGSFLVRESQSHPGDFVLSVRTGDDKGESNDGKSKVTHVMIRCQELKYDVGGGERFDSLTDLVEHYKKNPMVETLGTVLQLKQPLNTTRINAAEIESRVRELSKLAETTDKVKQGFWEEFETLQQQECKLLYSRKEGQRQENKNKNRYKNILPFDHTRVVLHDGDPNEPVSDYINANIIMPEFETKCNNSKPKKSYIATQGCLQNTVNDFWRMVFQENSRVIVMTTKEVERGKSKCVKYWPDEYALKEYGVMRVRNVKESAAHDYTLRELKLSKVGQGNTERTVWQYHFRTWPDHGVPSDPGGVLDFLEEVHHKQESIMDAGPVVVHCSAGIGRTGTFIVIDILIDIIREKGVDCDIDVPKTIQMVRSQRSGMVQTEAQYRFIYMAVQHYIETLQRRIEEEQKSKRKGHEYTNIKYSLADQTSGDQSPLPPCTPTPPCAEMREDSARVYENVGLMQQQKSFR
# [11] = target: Tyrosine-protein phosphatase non-receptor type 5 (Homo sapiens, UniProt P54829); experiment: STEP phosphatase inhibitors, confirmation, biochemical, fluorescence intensity, uHTS hits (AID 602372); format: functional; details: read-out: IC50_Mean
# Sequence of Tyrosine-protein phosphatase non-receptor type 5 (P54829 whole entry): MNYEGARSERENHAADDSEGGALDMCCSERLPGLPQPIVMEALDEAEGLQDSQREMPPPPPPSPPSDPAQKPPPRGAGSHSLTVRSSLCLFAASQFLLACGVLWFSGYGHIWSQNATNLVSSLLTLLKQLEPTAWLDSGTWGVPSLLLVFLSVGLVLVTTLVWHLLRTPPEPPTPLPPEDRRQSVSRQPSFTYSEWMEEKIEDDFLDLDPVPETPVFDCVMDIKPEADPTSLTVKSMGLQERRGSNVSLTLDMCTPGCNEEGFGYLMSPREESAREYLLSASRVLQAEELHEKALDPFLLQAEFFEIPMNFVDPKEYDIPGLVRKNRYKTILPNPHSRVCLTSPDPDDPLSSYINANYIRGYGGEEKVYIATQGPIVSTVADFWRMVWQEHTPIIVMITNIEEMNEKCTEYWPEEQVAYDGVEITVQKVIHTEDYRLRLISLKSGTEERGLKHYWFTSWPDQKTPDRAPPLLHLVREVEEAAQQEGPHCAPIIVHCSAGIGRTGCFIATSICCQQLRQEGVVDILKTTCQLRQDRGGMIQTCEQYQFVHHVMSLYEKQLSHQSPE
# [12] = target: Dual specificity protein phosphatase 3 (Homo sapiens, UniProt P51452); experiment: VHR phosphatase inhibition, dose response, selectivity assay for STEP inhibitor project, biochemical (AID 602374); format: functional; details: read-out: IC50_Mean
# Sequence of Dual specificity protein phosphatase 3 (P51452 whole entry): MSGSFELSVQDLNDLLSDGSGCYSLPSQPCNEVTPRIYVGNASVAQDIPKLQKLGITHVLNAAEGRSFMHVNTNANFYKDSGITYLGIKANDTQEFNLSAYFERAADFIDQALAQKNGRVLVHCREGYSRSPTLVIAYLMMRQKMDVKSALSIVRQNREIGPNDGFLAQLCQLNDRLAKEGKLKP
# [13] = inhibitors of intracellular T. cruzi replication, confirmation, NIH3T3 host cells, beta-gal luminescence (AID 2044); format: functional, cell-based;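 also: intracellular parasites grown in NIH/3T3 mouse fibroblasts as host cells; luminescent beta-galactosidase reporter signal from transgenic T. cruzi replicating inside host cells; inhibitors lower the luminescence signal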
# [14] = target: T4, Carboxy-terminal domain RNA polymerase II polypeptide A small phosphatase 1 (Homo sapiens, UniProt Q9GZU7); experiment: inhibitors of CTDSP1, concentration-response testing, biochemical assay, absorbance-based, actives from ultra-high-throughput screening (AID 540297); format: functional
# T4 sequence (Q9GZU7 whole entry): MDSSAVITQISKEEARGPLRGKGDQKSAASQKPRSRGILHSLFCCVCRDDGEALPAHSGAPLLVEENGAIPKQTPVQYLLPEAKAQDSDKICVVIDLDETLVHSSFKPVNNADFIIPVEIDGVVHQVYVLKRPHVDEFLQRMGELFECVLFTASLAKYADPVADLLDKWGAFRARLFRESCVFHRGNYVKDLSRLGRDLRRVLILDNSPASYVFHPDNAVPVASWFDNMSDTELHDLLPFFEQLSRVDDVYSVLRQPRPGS
# [15] = AlphaScreen signal interference compounds, dose response, artefact control for ARNT-TACC3 interaction inhibitor project, biochemical, luminescence, cherry-pick (AID 651705); format: functional;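 also: AlphaScreen bead proximity signal that flags compounds interfering with the detection technology; potency reflects signal decrease which marks the compound as an assay artifact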
# Caspase-6 = target: T5, Caspase-6 (Homo sapiens, UniProt P55212); experiment: human caspase-6 inhibitors, dose response, biochemical, VEID-R110 fluorescence, cherry-pick (AID 720632)
# T5 sequence (P55212 whole entry): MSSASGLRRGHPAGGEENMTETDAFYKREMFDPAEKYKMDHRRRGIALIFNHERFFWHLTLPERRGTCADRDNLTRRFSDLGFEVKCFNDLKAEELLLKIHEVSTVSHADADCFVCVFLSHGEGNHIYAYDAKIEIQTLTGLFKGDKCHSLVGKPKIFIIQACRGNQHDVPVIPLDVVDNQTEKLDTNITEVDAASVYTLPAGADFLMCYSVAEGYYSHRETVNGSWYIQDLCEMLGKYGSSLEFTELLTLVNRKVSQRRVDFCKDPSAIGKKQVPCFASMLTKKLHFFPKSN
# [16] = ARNT/TACC3 interaction disruptors, potency, confirmation, biochemical, AlphaScreen, cherry-picked samples (AID 651703); format: functional, Homo sapiens;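 also: His-tagged ARNT PAS-B domain paired with GST-TACC3 E629A dimer coactivator fragment; potency of inhibitors that break up the complex and lower AlphaScreen signal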
# [17] = cytotoxicity toward NIH3T3 fibroblasts, dose response, counter-screen, cell-based, ATP luminescence, mouse fibroblasts (AID 2010); format: functional;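 also: cells exposed to compound for about 90 hours before reading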
# [18] = target: Potassium voltage-gated channel subfamily KQT member 2 (Rattus norvegicus, UniProt O88943); experiment: KCNQ2 potassium channel inhibitors, dose response, cell-based, automated electrophysiology, set II, rat KCNQ2 (AID 588637); format: functional
# Sequence of Potassium voltage-gated channel subfamily KQT member 2 (O88943 whole entry): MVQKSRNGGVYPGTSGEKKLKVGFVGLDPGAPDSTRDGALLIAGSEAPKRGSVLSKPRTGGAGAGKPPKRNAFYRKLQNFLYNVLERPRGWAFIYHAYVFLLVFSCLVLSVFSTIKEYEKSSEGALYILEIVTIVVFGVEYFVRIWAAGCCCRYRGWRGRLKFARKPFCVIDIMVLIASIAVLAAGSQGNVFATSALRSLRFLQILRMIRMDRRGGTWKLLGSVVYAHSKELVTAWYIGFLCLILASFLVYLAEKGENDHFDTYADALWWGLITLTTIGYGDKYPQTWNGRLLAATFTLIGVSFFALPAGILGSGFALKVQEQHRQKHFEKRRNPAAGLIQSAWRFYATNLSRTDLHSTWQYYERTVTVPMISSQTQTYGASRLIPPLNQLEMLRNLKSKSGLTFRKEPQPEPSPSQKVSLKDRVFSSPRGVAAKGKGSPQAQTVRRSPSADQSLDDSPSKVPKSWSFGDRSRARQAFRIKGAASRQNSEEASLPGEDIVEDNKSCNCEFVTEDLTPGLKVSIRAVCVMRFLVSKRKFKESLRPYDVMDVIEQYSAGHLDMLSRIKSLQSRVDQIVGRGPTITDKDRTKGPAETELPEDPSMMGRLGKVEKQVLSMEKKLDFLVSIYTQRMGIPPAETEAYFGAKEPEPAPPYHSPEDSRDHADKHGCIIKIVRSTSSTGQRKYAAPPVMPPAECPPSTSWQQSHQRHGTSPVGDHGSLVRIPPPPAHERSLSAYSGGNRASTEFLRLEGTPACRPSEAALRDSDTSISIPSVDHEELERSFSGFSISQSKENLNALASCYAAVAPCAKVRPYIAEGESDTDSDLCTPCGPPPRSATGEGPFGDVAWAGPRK
# Sequence of Botulinum neurotoxin type F (P30996 1-436 limits assumed): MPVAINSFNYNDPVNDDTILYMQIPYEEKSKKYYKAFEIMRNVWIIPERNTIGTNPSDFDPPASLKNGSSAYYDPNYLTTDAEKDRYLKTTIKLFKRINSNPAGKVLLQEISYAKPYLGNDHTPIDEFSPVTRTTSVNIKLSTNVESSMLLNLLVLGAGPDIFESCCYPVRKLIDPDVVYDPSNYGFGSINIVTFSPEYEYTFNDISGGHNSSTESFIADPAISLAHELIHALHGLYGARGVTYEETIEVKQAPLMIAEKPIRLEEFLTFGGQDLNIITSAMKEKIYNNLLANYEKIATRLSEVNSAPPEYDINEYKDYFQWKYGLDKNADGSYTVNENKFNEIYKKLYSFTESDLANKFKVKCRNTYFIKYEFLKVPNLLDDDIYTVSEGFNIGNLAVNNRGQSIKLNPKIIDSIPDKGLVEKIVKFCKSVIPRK
smiles,measurement,setting,value
Cc1cc2nc(-c3cccc(Br)c3)c(Cc3cccc(Cl)c3)n2c(C)c1Br,EC50,[1],> 20 µM (inactive)
Cc1sc2nc(CN(Cc3cccs3)C(=O)NC3CCCCC3)nc(O)c2c1C,IC50,[2],19.7 µM (active)
O=C(Nc1ccc(C(=O)N2CCOCC2)cc1)Nc1cccc(C(F)(F)F)c1,IC50,Interleukin-8 [3],41.9 µM (inactive)
same,AC50,HEK293,3.04 µM (active)
same,IC50,Interleukin-8 [4],> 79 µM (inactive)
O=C(O)[C@@H]1[C@H]2C[C@H]3c4[nH]c5ccccc5c4CCN3C[C@@H]2CC[C@@H]1O,IC50,[5],67.6 µM (inactive)
Cc1nnc(C(C#N)c2c(Cl)cnn(Cc3cccc4ccccc34)c2=O)o1 (stereo not given),IC50,[6],0.435 µM (active)
same,IC50,[7],0.435 µM (active)
O=C(C[n+]1cccc(Br)c1)c1ccccc1,IC50,[8],3.23 µM (active)
same,IC50,[9],2.84 µM (active)
Cc1ccc(NC(=O)CN2C(=O)S/C(=C\c3ccc(OCC(=O)O)c(Br)c3)C2=O)cc1,IC50,[10],6.33 µM (active)
same,IC50,[11],> 80 µM (inactive)
same,IC50,[12],6.91 µM (active)
COc1ccc(CC(=O)Nc2ncc([N+](=O)[O-])s2)cc1OC,EC50,[13],1.27 µM (active)
same,IC50,[14],3.21 µM (active)
same,AC50,[15],117 µM (active)
same,AC50,Caspase-6,2.89 µM (active)
same,AC50,[16],112 µM (active)
same,EC50,[17],> 60 µM (not active)
O=C(CN1C(=O)C(c2ccccc2)Oc2cccnc21)NCc1ccccc1F (stereo not given),IC50,[18],1.81 µM (active)
